Assay [1] deals with recombinant human HPK1 (Homo sapiens (Human), UniProt Q92918). Put plainly: HPK1 kinase assay (ADP-Glo). Type of assay: biochemical. To be noted: 25 μM ATP, MBP substrate. In outline: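 Activity was read as ADP formed, detected by ADP-Glo luminescence after the reaction of 5 ng recombinant human HPK1 with MBP and ATP (stocks 0.5 μg/μl and 25 μM) for 40 min at 30 °C. Buffer was Tris pH 7.5 with MgCl2, BSA and DTT, with compound in 0.5% DMSO. IC50 came from inhibition curves.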
For orientation: ADP-Glo first removes unused ATP, then detects ADP through luciferase.

The test system of assay [2] is human peripheral blood pan T cells. Put plainly: IFNγ and IL-2 analysis of human peripheral pan T cells. Particulars: T-cell, CD3/CD28 bead stimulation, 100 nM Prostaglandin E2, 24 hr. In kind it is cell-based. An outline of the steps: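 Human peripheral blood pan T cells (8×10^4) were preincubated 1 h with compounds plus 100 nM PGE2. They were then activated with anti-CD3/CD28 Dynabeads at a 1:3 cell:bead ratio. IFNγ and IL-2 were measured on a Meso Scale Discovery platform.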

Where [3] appears, read: IFNγ secretion, read-out: IFNγ (EC50).
Where [4] appears, read: IL-2 secretion, read-out: IL-2 (EC50).

The structures appear in SMILES notation. Like-named read-outs stand apart in the source and are kept apart here.

Chain of recombinant human HPK1 (Q92918 whole entry): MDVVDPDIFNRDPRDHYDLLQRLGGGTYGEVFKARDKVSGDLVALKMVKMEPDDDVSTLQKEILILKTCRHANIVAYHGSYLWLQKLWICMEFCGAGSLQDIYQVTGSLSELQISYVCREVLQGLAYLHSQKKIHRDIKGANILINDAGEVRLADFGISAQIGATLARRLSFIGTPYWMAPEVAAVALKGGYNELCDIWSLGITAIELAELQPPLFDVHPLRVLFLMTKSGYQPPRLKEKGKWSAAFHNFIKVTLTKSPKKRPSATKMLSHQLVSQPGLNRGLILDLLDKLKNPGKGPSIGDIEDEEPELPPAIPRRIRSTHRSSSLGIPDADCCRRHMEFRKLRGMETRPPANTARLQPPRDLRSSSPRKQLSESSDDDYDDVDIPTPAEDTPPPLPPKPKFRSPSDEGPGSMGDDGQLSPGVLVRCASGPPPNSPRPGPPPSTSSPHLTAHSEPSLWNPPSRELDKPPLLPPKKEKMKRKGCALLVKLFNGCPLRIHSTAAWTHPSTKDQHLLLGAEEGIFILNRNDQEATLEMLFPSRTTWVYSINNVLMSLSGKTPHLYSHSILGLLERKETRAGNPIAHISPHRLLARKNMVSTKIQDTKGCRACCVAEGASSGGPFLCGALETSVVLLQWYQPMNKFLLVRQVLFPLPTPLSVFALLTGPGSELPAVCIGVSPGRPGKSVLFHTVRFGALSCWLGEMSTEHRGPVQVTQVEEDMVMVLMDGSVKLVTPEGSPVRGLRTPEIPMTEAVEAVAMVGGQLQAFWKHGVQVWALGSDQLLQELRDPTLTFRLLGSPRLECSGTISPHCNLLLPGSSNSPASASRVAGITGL

As for `CCN(C)c1c(F)c(C)c(-c2ccn3nc(NC(=O)[C@@H]4C[C@@H]4F)cc3c2)c2cn[nH]c12` [Example 563, (1S,2S)-N-(5-(7-(ethyl(methyl)amino)-6-fluoro-5-methyl-1H-indazol-4-yl)pyrazolo[1,5-a]pyridin-2-yl)-2-fluorocyclopropane-1-carboxamide], the IC50 in assay [1] is less than 100 nM. The EC50 in assay [2] (setting [3]) and in assay [2] (setting [4]) was 200 to 1000 nM in each case.

`Cc1c(F)c(C(=O)N(C)C)c2[nH]ncc2c1-c1ccn2nc(NC(=O)[C@@H]3C[C@@H]3F)cc2c1` [Example 570, 6-fluoro-4-(2-((1S,2S)-2-fluorocyclopropane-1-carboxamido)pyrazolo[1,5-a]pyridin-5-yl)-N,N,5-trimethyl-1H-indazole-7-carboxamide]: in assay [1], the IC50 was less than 100 nM. Moreover, the EC50 in assay [2] (setting [3]) is less than 200 nM; in assay [2] (setting [4]) it was 200 to 1000 nM.

Consider `CN(C)c1c(F)c(Cl)c(-c2ccc3nc(NC(=O)[C@@H]4C[C@@H]4F)cn3c2)c2cn[nH]c12` [Example 258, (1S,2S)—N-(6-(5-chloro-7-(dimethylamino)-6-fluoro-1H-indazol-4-yl)imidazo[1,2-a]pyridin-2-yl)-2-fluorocyclopropane-1-carboxamide], for which the IC50 in assay [1] was less than 100 nM. Moreover, the values for the EC50 in assay [2] (setting [3]) and in assay [2] (setting [4]) were less than 200 nM and 200 to 1000 nM, respectively.

Take `CC(=O)N(C)c1c(F)c(Cl)c(-c2ccc3nc(NC(=O)[C@@H]4C[C@@H]4F)sc3c2)c2cn[nH]c12` [Example 123, (1S,2S)-N-(6-(5-chloro-6-fluoro-7-(N-methylacetamido)-1H-indazol-4-yl)benzo[d]thiazol-2-yl)-2-fluorocyclopropane-1-carboxamide]: the IC50 in assay [1] was less than 100 nM. Moreover, the results for the EC50 in assay [2] (setting [3]) and in assay [2] (setting [4]) were 200 to 1000 nM and greater than 1000 nM, respectively.

Turning to `Cc1c(F)c(OCCO)c2[nH]ncc2c1-c1ccn2nc(NC(=O)[C@@H]3C[C@@H]3F)cc2c1` [Example 534, (1S,2S)-2-fluoro-N-(5-(6-fluoro-7-(2-hydroxyethoxy)-5-methyl-1H-indazol-4-yl)pyrazolo[1,5-a]pyridin-2-yl)cyclopropane-1-carboxamide], in assay [1], the IC50 is less than 100 nM. Besides, the EC50 in assay [2] (setting [3]) was less than 200 nM.

With `Cc1c(F)c(C)c2[nH]ncc2c1-c1ccc2nc(NC(=O)[C@@H]3C[C@@H]3F)sc2n1` [Example 199, (1S,2S)-2-fluoro-N-(5-(6-fluoro-5,7-dimethyl-1H-indazol-4-yl)thiazolo[5,4-b]pyridin-2-yl)cyclopropane-1-carboxamide], the IC50 in assay [1] was less than 100 nM. Moreover, in assay [2] (setting [3]), the EC50 was in the range of 200 to 1000 nM.

The term IC50 denotes the point on the concentration scale where inhibition reaches its midpoint. One may read the EC50 as the concentration at which the effect is half-maximal.

For the origin of these results see patent publication US11649255B2, “Indazoles as hematopoietic progenitor kinase 1 (HPK1) inhibitors and methods using same” (1st Biotherapeutics, Inc., priority 2020, dated 2023).
